The test system of data set [1] is snake venom phosphodiesterase (Crotalus admanteus venom phosphodiesterase (CAVP)).
Data set [2] deals with sense strand (5′-AAAAAAAAAA-3′; SEQ ID NO: 4). As to the kind of experiment: Melting temperature (Tm) test of antisense strand annealed with sense strand. The conditions noted are these: duplex with sense strand 5′-AAAAAAAAAA-3′; UV absorption at 260 nm.
Experimental: A mixture of 1 mL of the sense strand (0.5 OD/mL) and 1 mL of the antisense strand (0.5 OD/mL) was mixed and stirred evenly, heated at 90° C. for 10 min, and then cooled to room temperature. A Tm value of the sample was measured using an ultraviolet spectrophotometer (Agilent, Cary 3500 UV-Vis), the sample was placed in a cuvette with a cap and a temperature probe, a temperature was set to be raised from 20-25° C. to 70-80° C. at a rate of 0.5° C. or 1.0° C. per minute, and ultraviolet absorption at 260 nm was measured at an interval of 0.5° C.

Take “5′-TTTTTTTTTT-3′ [Control antisense strand]”: the “degradation by nuclease (in words)” value in data set [1] was “almost completely degraded”. Further, the Tm in data set [2] stood at 43 °C.

In general, Tm refers to the temperature at the midpoint of the melting transition.
